Structures are written as SMILES.

Data set [1] has as its system tyrosinase. The data set can be described thus: Effect on tyrosinase activity (L-DOPA to dopachrome, absorbance at 475 nm). The class given is biochemical. To be noted: for effect on tyrosinase activity (FIG. 2): 10-40 μM. On the procedure:
Tyrosinase plays an important role on melanogenesis. Thus the effect of 3′-hydroxygenistein on tyrosinase is detected. First dissolve 1 μL 3′-hydroxygenistein in DMSO (dimethyl sulfoxide) and mixed with 5 μL tyrosinase in a 94 μL, 50 mM PBS (pH 6.8). Add 0.9 mL, 2.5 mM L-DOPA (dissolved in 50 mM PBS, pH 6.8) into the mixture and react at 25° C. for 10 minutes.

For data set [2], the system named is B16 melanoma 4A5 cells. Description: Cell viability by MTT assay. In kind it is cell-based, mouse. To be noted: 48 hours. On the procedure:
In order to confirm a non-cytotoxic concentration range of 3′-hydroxygenistein, MTT and crystal violet staining assays are used to detect cell viability of 3′-hydroxygenistein. A mouse melanoma cell line (B16 melanoma 4A5 obtained from bioresource Collection and Research Center, Food Industry Research and Development Institute) is cultured in DMEM (Dulbecco's Modified Eagle Medium) containing 10% (v/v) fetal bovine serum (FBS) in a 5% CO2 humidified incubator for 24 hours. The B16 melanoma 4A5 cells are treated with 3′-hydroxygenistein for 48 hours. Then remove the culture medium, add 1 mg/mL MTT dissolved in PBS and incubate for 2 hours. Next remove MTT solution and add DMSO. At last, use spectrophotometer ((U-5100; Hitachi, Japan) to detect absorbance of dissolved formazan crystals at 475 nm. The cell viability is expressed as percentage of control (% of control).
For orientation: Tetrazolium assays rely on reduction of a dye to a coloured formazan, in cell work by metabolically active cells.

Data set [3] relates to B16 melanoma 4A5 cells. The data set can be described thus: Melanin content in IBMX-stimulated cells. In kind it is cell-based, mouse. As to conditions: 400 μM IBMX, 2 days; for effect on melanogenesis (FIG. 4): 10 μM and 20 μM. On the procedure: In this experiment, 3-isobutyl-1-methylxanthine (IBMX) is used as a melanogenic-stimulating agent while genistein and danazol with inhibitory effect on melanogenesis are used as positive controls. The B 16 melanoma 4A5 cells are cultured in DMEM containing 10% (v/v) fetal bovine serum (FBS) in a 5% CO2 humidified incubator at 37° C. Then seed cells in a 24-well plate with proper density. After one day, the cells are treated with 5 μM, 10 μM, and 20 μM 3′-hydroxygenistein respectively in the presence of 400 μM IBMX and cultured for 2 days. Then collect and wash the cells with PBS (Phosphate Buffered Saline) buffer twice. The cell pellets are dissolved in lysis buffer containing 20 mM trisodium phosphate (pH6.8) and 1% Triton X-100. After centrifugation at 15,000×g for 15 minutes, melanin pellets are dissolved in 1N NaOH containing 20% DMSO at 95° C. for 1 hour. Use spectrophotometer ((U-5100; Hitachi, Japan) to detect absorbance of melanin at 490 nm. The melanin content is expressed as percentage of the control group (IBMX group).

Data set [4] deals with tyrosinase. As to conditions: cited from earlier work.
In data set [5] the test system is melanin cells. As to conditions: 30 μM to 60 μM; cited from earlier work.

`O=c1c(-c2ccc(O)c(O)c2)coc2cc(O)cc(O)c12` [3′-hydroxygenistein]: the “effect on tyrosinase activity (FIG. 2)” value in data set [1] is reported as “inhibits tyrosinase activity in a dose-dependent manner”. Also, the IC50 in data set [1] (L-DOPA substrate, 25° C., 10 minutes, pH 6.8, read-out: half-inhibitory concentration (IC50) in inhibiting tyrosinase) amounted to 15.9 µM. In addition, the “tyrosinase inhibitory activity, times stronger than kojic acid” value in data set [1] (ratio of IC50 values, kojic acid as the standard) turned out to be 11 times. In addition, in data set [2] (40 μM), the “cytotoxicity (cell survival rate, FIG. 3)” value was “shows cytotoxicity”. Besides, the “cytotoxicity (cell survival rate, FIG. 3)” value in data set [2] (concentration between 10 μM and 20 μM) is “no cytotoxicity”. Moreover, in data set [3], the “effect on melanogenesis (FIG. 4)” value is recorded as “show inhibition of melanogenesis” and the “inhibitory effect on melanogenesis compared with danazol” value is reported as “better than danazol”. In addition, the “melanin content, percentage of the control group (IBMX group)” value in data set [3] (20 μM) is on record as 50.5%.
With `O=c1c(-c2ccc(O)cc2)coc2cc(O)c(O)cc12` [6-OHDe, 6,7,4′-trihrdroxyisoflavone], the “tyrosinase inhibitory activity, times stronger than glycitein” value in data set [4] (Taiwanese Pat. No. 1312686) was 25 times. The “tyrosinase inhibition activity (literature)” value (“tyrosinase inhibition activity” below) in data set [4] is “have tyrosinase inhibition activity”.
For the compound `O=c1c(-c2ccc(O)cc2)coc2c(O)c(O)ccc12` [8-OHDe, 7,8,4′-trihrdroxyisoflavone], the “tyrosinase inhibitory activity, times stronger than daidzein” value in data set [4] (Taiwanese Pat. No. 1312686) is reported as 30 times. Also, the “tyrosinase inhibition activity” value in data set [4] is given as “have tyrosinase inhibition activity”.
On to `O=c1c(-c2ccc(O)cc2)coc2c(O)c(O)cc(O)c12` [8-hydroxygenistein, 5,7,8,4′-tetrahydroxyisoflavone], for which the “tyrosinase inhibitory activity, times stronger than genistein” value in data set [4] (Taiwanese Pat. No. 1312686) is 90 times.
On to `O=c1c(-c2ccc(O)cc2)coc2cc(O)ccc12` [daidzein], for which the “tyrosinase inhibition activity” value in data set [4] was “doesn't have such activity”.
`O=c1c(-c2ccc(O)cc2)coc2cc(O)cc(O)c12` [genistein]: the “effect on tyrosinase activity (FIG. 2)” value in data set [1] was “no tyrosinase inhibitory activity”. The “effect on melanogenesis (FIG. 4)” value in data set [3] was “no inhibitory effect on melanogenesis”. Besides, the “effect on melanin production (literature)” value in data set [5] is listed as “induce melanin cells to produce more melanin”.
